Data on 12 compounds can be found in PubChem BioAssay (NCI).

Holding throughout (assay): inhibition of tumour cell growth, NCI panel, 48 h
For assay [1], the system named is OVCAR-8 ovarian.
Assay [2] has as its system NCI-H460 lung.
In assay [3] the test system is SNB-19 CNS.
Assay [4] deals with A498 renal.
For assay [5], the system named is DMS 114 small cell lung.
Assay [6] relates to MALME-3M melanoma.
Assay [7] concerns SF-539 CNS.
Assay [8] deals with KM20L2 colon.
Assay [9] concerns HCC-2998 colon.
Assay [10] concerns SR leukemia.
In assay [11] the test system is SF-295 CNS.

Structures are written as SMILES. Where “and” joins values, the source holds several entries; their conditions need not be identical. Identical values can stand only once.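 The compound was tested at five concentrations on cells cultured in 96-well plates, with a 48-hour exposure period. GI50: concentration for 50% inhibition of growth. TGI: total growth inhibition.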

`O=C1C=C(N2CC2)C(=O)C=C1N1CC1`: the TGI was 4.31 µM in assay [1]; 0.2 µM and 0.781 µM in assay [2]; 4.72 µM in assay [3]; 0.158 µM in assay [4]; 0.644 µM in assay [5]; 0.234 µM and 0.238 µM in assay [6]. Besides, the TGI in assay [7] was 0.267 µM and 0.268 µM; in assay [8], 1.74 µM; in assay [9] it was 0.15 µM and 0.739 µM; in [10] it was 0.302 µM; in [11], 0.266 µM and 1.3 µM. The GI50 in assay [2] is 0.00521 µM; in [3] it was 0.203 µM; in assay [6], 0.0498 µM; in [7], 0.0221 µM; in [9], 0.0234 µM; in [10], 0.0266 µM. Also, the GI50 in [11] is 0.038 µM.
On to `NC(Cc1c[nH]c2ccccc12)C(=O)O` (stereo not given), for which the TGI was more than 248 µM in assay [1]; more than 300 µM in [2]; more than 300 µM in assay [3]; more than 13.9 µM in assay [4]; more than 300 µM in assay [5]; more than 300 µM in assay [6]. Also, the TGI in assay [7], in [8], in [9] and in assay [11] was more than 300 µM each time.
Regarding `Nc1nc(N)c2nc(-c3ccco3)cnc2n1`, the TGI in [1], in [2], in [3], in assay [4], in assay [5] and in assay [6] was more than 100 µM throughout. Also, the TGI in assay [7], in assay [8], in [9], in assay [10] and in assay [11] was more than 100 µM in each case.
Regarding `N=c1oc2ccc(Cl)cc2cc1C(=O)NCc1ccccc1`, the TGI in assay [1], in assay [2], in [3], in assay [4], in assay [6] and in assay [7] was more than 100 µM in each case. Further, the TGI in assay [9], in [10] and in assay [11] was more than 100 µM each time.
Take `COC1(OC)C2(Cl)C(Cl)=C(Cl)C1(Cl)C1COCC12` (stereo not given): the TGI in assay [1], in [2], in assay [3], in assay [4], in assay [6] and in assay [7] was more than 100 µM throughout. Also, the TGI in [9], in assay [10] and in assay [11] was more than 100 µM in each case.
For the compound `Cc1ccc(Nc2sc(C)cc2C#N)c([N+](=O)[O-])c1`, the TGI in assay [1], in assay [2], in [3], in assay [4], in assay [6] and in assay [7] was more than 100 µM throughout. For the same compound, the TGI in assay [9], in [10] and in assay [11] was more than 100 µM in each case.
Turning to `CCOP(=O)(OCC)/C(C#N)=C/c1cccn1N(C)C`, the TGI in [1], in assay [2], in [3], in [4], in assay [6] and in assay [7] was more than 100 µM each time. In addition, the TGI in assay [9], in [10] and in assay [11] was more than 100 µM each time.
As for `O=C(OCC1CCCN2CCCCC12)c1ccncc1` (stereo not given), the TGI in assay [1], in [2], in [3], in [4], in [6] and in assay [7] was more than 100 µM throughout. Moreover, the TGI in assay [9], in assay [10] and in [11] was more than 100 µM each time.
With `COc1cc(C2SCC(=O)N2c2ccc(Cl)cc2)cc(I)c1O` (stereo not given), the TGI in [1] was more than 100 µM; in [2], more than 100 µM; in assay [3], more than 100 µM; in [4], more than 23.2 µM; in [6] it was more than 100 µM; in assay [7], more than 100 µM. Further, the TGI in assay [9], in assay [10] and in assay [11] was more than 100 µM each time.
For `C/C(=N\O)c1cccc(Nc2nc3ccccc3c3occc23)c1`, the TGI is 32.8 µM in assay [1]; 21 µM in assay [2]; 39.8 µM in assay [3]; 29.2 µM in assay [4]; 28.9 µM in assay [6]; 29.6 µM in [7]. For the same compound, the TGI was determined as 28.9 µM in assay [9], 35.1 µM in assay [10] and 22.6 µM in assay [11].
Take `CC(C)(C)OC(=O)NC(Cc1ccc(OCc2ccccc2)cn1)C(=O)N1CCSCC1` (stereo not given): the TGI in assay [1], in assay [2], in [3], in assay [4], in assay [6] and in assay [7] was more than 100 µM throughout. The figures for the TGI in assay [9], in assay [10] and in assay [11] were more than 100 µM, 75.3 µM and more than 100 µM, respectively.
In the case of `O=C1OC[C@@H]2Cc3c([nH]c4ccccc34)[C@@H](c3cc(O)c(O)c(O)c3)N12`, the TGI in [1] was 41.8 µM; in assay [2], more than 100 µM; in assay [3], 69.1 µM; in [4], 48 µM; in assay [6], 49.7 µM; in [7] it was 37.9 µM. The TGI in [9] was more than 100 µM; in [10], 61.9 µM; in assay [11], 34 µM.
